Laboratory results: patent US11319293B2, “Polymorps of cariprazine hydrochloride and preparation method thereof and use of same” (SHANGHAI BEGREAT PHARMATECH, priority 2018, dated 2022)
Structures can show the parent of a compound that is named as a salt.

What was measured:
[1] = Dissolution and re-precipitation time in pH 6.5 buffer (simulated fasting small intestine); assay type: physicochemical; settings: for Dissolving time / Precipitate time: 5 mg crystal form in 80 mL pH 6.5 buffer solution; for Dissolving time: shaken slightly; for Precipitate time: time of re-precipitation, hydrochloride
Description: In Example 1, precipitation time for Form A and Forms I and II were compared under pH of simulated intestinal fluid. Take 5 mg of crystal forms A, I and II, and put them in 100-ml glass sample bottles, add 80 mL of pH 6.5 buffer solution (pH value of simulating fasting small intestine), and shake them slightly to observe precipitate. Dissolution status and time of re-precipitation were recorded.

[2] = Powder flowability test (angle of repose); assay type: physicochemical; settings: for angle of repose: average of three determinations, α=arctg(H/R), hydrochloride; for flowability compared with forms I and II (in words): conclusion from angle of repose
Source text: Angle of repose is adopted widely to evaluate the powder flowability. When the angle of repose of the powder is less than or equal to 30 degrees, it means the flowability of this powder is good. While in case, 40 degrees or less of the powder angle of repose, this powder can satisfy the demand for fluidity in the production process. When the angle of repose of the powder is more than 40 degrees, it means the very poor flowability of the drug powder which may cause the troubles above mentioned during the drug manufacturing process.
Powder flowability test: A petri dish with a diameter of 7 cm in the bottom plate is used. Two glass funnels are staggered on top of each other and fixed on an iron stand. The distance between the lower funnel outlet and the bottom plate is between 3.5-6.0 cm. Take some cariprazine hydrochlorides in different crystal forms, and slowly add them from the upper funnel, so that the sample gradually accumulates on the chassis through the buffer of the two funnels to form a cone until the highest cone is obtained. Measure the height H of the cone. Determine three times for each sample, take the average, and calculate the angle of repose as follows: α=arctg(H/R) Among them, α is the angle of repose and R is the radius of the chassis.
When the angle of repose of the powder is less than or equal to 30 degrees, it means flowability of powder is good. The flowability requirement in the manufactured process can be satisfied when it is less than or equal to 40 degrees. If the angle of repose of powder is more than 40 degrees, it means flowability is poor.

schizophrenia = settings: cited from earlier work
bipolar disorder = settings: cited from earlier work

Row | SMILES | Dissolving time [1] | Precipitate time [1] [min] | maintenance of dissolved state under near-neutral conditions compared to Forms I and II (in words) ([1]; pH 6.5 buffer) | angle of repose [2] [°] | flowability compared with forms I and II (in words) [2] | most common adverse effects in the treatment of schizophrenia (schizophrenia; clinical trials) | symptoms of schizophrenia compared to placebo group (schizophrenia; six-week clinical trial, 1,754 participants, according to the FDA) | symptoms of bipolar disorder compared with placebo group (bipolar disorder; 6-week clinical trial, 1037 subjects) | most common adverse effects in the treatment of bipolar disorder (bipolar disorder; clinical trials)
1 | CN(C)C(=O)N[C@H]1CC[C@H](CCN2CCN(c3cccc(Cl)c3Cl)CC2)CC1 [Form A, trans-N-{4-[2-[4-(2,3-dichlorophenyl)-piperazine-1-yl]-ethyl]-cyclohexyl}-N′,N′-dimethylurea hydrochloride] | immediately | 10 | significantly prolonged maintenance | 35 | significantly improve the flowability | – | – | – | –
2 | CN(C)C(=O)N[C@H]1CC[C@H](CCN2CCN(c3cccc(Cl)c3Cl)CC2)CC1 [Compound 1, hydrochloride] | – | – | – | – | – | extrapyramidal symptoms, including tremor, speech insufficiency, and dystonia | significantly reduces the symptoms of schizophrenia | significantly reduce the symptoms of bipolar disorder | extrapyramidal symptoms, manifested by inability to sit still, indigestion, vomiting, lethargy, and restlessness
3 | CN(C)C(=O)N[C@H]1CC[C@H](CCN2CCN(c3cccc(Cl)c3Cl)CC2)CC1 [Form I, cariprazine hydrochloride] | immediately | 1 | – | 40 | – | – | – | – | –
4 | CN(C)C(=O)N[C@H]1CC[C@H](CCN2CCN(c3cccc(Cl)c3Cl)CC2)CC1 [Form B, trans-N-{4-[2-[4-(2,3-dichlorophenyl)-piperazine-1-yl]-ethyl]-cyclohexyl}-N′,N′-dimethylurea hydrochloride] | – | – | – | 28 | significantly improve the flowability | – | – | – | –
5 | CN(C)C(=O)N[C@H]1CC[C@H](CCN2CCN(c3cccc(Cl)c3Cl)CC2)CC1 [Form II, cariprazine hydrochloride] | immediately | 1 | – | 40 | – | – | – | – | –
6 | CN(C)C(=O)N[C@H]1CC[C@H](CCN2CCN(c3cccc(Cl)c3Cl)CC2)CC1 [Form C, trans-N-{4-[2-[4-(2,3-dichlorophenyl)-piperazine-1-yl]-ethyl]-cyclohexyl}-N′,N′-dimethylurea hydrochloride] | – | – | – | 31 | significantly improve the flowability | – | – | – | –
